Measurements as given in ChEMBL document CHEMBL1201862, “PubChem BioAssay data set” (2004).
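These data come from cells grown in 96-well plates and exposed to compound for 48 hours at five concentrations. Abbreviation: GI50, concentration required for 50% inhibition of growth.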 Calls of active or inactive are those of the source. No stated cut-off is given here; in the data, active = GI50 up to about 1.1 µM and inactive = higher.

Experiments:
Test in all cases: inhibition of tumour cell growth, NCI panel, 48 h
[1] = test system: OVCAR-8
[2] = test system: EKVX
[3] = test system: SF-295
[4] = test system: SNB-75
[5] = test system: HCC 2998
[6] = test system: TK-10
[7] = test system: RPMI-8226
[8] = test system: M14
[9] = test system: OVCAR-5
[10] = test system: ACHN
[11] = test system: PC-3
[12] = test system: UO-31
[13] = test system: HCT-116
[14] = test system: HOP-62
[15] = test system: UACC-62
[16] = test system: Hs-578T
[17] = test system: NCI-H522
[18] = test system: MCF7
[19] = test system: OVCAR-4
[20] = test system: SN12C
[21] = test system: KM12
[22] = test system: SF-268
[23] = test system: A549
[24] = test system: HT-29
[25] = test system: K562
[26] = test system: CCRF-CEM
[27] = test system: SK-MEL-5
[28] = test system: HOP-92
[29] = test system: SW-620
[30] = test system: 786-0
[31] = test system: NCI/ADR-RES
[32] = test system: CAKI-1
[33] = test system: NCI-H460
[34] = test system: RXF 393
[35] = test system: HL-60
[36] = test system: MDA-N
[37] = test system: SF-539
[38] = test system: MDA-MB-231
[39] = test system: SK-MEL-2
[40] = test system: UACC-257
[41] = test system: NCI-H226
[42] = test system: MDA-MB-435
[43] = test system: Malme-3M
[44] = test system: SK-OV-3
[45] = test system: SR
[46] = test system: IGROV-1
[47] = test system: SNB-19
[48] = test system: HCT-15
[49] = test system: LOX IMVI
[50] = test system: DU-145
[51] = test system: A498
[52] = test system: BT-549
[53] = test system: COLO 205
[54] = test system: MOLT-4
[55] = test system: OVCAR-3
[56] = test system: U-251
[57] = test system: SK-MEL-28
[58] = test system: NCI-H23

Measured: GI50

Cc1ccc(S(=O)(=O)N2CC(CCN)c3ccccc32)cc1 (stereo unspecified)
4.05 µM: [48]
active: [36] 0.883 µM
inactive: [1] 3.59 µM | [2] 13 µM | [3] 4.56 µM | [4] 5.46 µM | [5] 4.76 µM | [6] 7.89 µM | [7] 6.01 µM | [8] 2.29 µM | [9] 4.43 µM | [10] 8.41 µM | [11] 3.64 µM | [12] 4.61 µM | [13] 2.27 µM | [14] 6.78 µM | [15] 3.68 µM | [16] 5.62 µM | [17] 5.87 µM | [18] 1.47 µM | [19] 17.5 µM | [20] 2.72 µM | [21] 6.03 µM | [22] 5.31 µM | [23] 9.51 µM | [24] 2.89 µM | [25] 4.35 µM | [26] > 100 µM | [27] 2.58 µM | [28] 4.19 µM | [29] 4.34 µM | [30] 3.89 µM | [31] 5.61 µM | [32] 6.38 µM | [33] 5.08 µM | [34] 2.74 µM | [35] > 100 µM | [37] 3.17 µM | [38] 4.1 µM | [39] 4.28 µM | [40] 4.78 µM | [41] 2.45 µM | [42] 1.53 µM | [43] 4 µM | [44] 5.5 µM | [45] 5.19 µM | [46] 3.28 µM | [47] 4.97 µM | [49] 2.99 µM | [50] 3.87 µM | [51] 10.7 µM | [52] 5.69 µM | [53] 4.06 µM | [54] 28 µM | [55] 3.36 µM | [56] 3.72 µM | [57] 5.16 µM | [58] 6.38 µM

CCOP(=O)(OCC)/C(C#N)=C/c1cnc(C)[nH]1
> 100 µM: [48]
inactive: [1] > 100 µM | [2] > 100 µM | [3] > 100 µM | [4] > 100 µM | [5] > 100 µM | [6] > 100 µM | [7] > 100 µM | [8] > 100 µM | [9] > 100 µM | [10] > 100 µM | [11] > 100 µM | [12] > 100 µM | [13] > 100 µM | [14] > 100 µM | [15] > 100 µM | [16] > 100 µM | [17] > 100 µM | [18] > 100 µM | [19] > 100 µM | [20] > 100 µM | [21] > 100 µM | [22] > 100 µM | [23] > 100 µM | [24] > 100 µM | [25] > 100 µM | [26] > 100 µM | [27] > 100 µM | [28] > 100 µM | [29] > 100 µM | [30] > 100 µM | [31] > 100 µM | [32] > 100 µM | [33] > 100 µM | [34] > 100 µM | [35] > 100 µM | [36] > 100 µM | [37] > 100 µM | [38] > 100 µM | [39] > 100 µM | [40] > 100 µM | [41] > 100 µM | [42] > 100 µM | [43] > 100 µM | [44] 20.5 µM | [45] > 100 µM | [46] > 100 µM | [47] > 100 µM | [49] > 100 µM | [50] > 100 µM | [51] > 100 µM | [52] > 100 µM | [53] > 100 µM | [54] > 100 µM | [55] > 100 µM | [56] > 100 µM | [57] > 100 µM | [58] > 100 µM
